# Values quoted from earlier work as cited in patent publication US11744878B2 (priority 2020, dated 2023).
# Where no end group is shown, it is not given here.
# What was measured:
# COVID-19 = conditions: most critically ill patients with COVID-19; cited from earlier work
# SARS coronavirus = conditions: cited from earlier work
# pancreas = conditions: cited from earlier work
# [1] = in vivo; cited from earlier work
compound,measurement,setting,value
"CC[C@H](C)[C@H](NC(=O)[C@H](CO)NC(=O)[C@H](CC(N)=O)NC(=O)[C@H](CC(C)C)NC(=O)[C@H](Cc1ccc(O)cc1)NC(=O)[C@H](CCCCN)NC(=O)[C@H](CCCCN)NC(=O)[C@@H](NC(=O)[C@H](C)NC(=O)[C@H](CCSC)NC(=O)[C@H](CCC(N)=O)NC(=O)[C@H](CCCCN)NC(=O)[C@H](CCCNC(=N)N)NC(=O)[C@H](CC(C)C)NC(=O)[C@H](CCCNC(=N)N)NC(=O)[C@@H](NC(=O)[C@H](Cc1ccc(O)cc1)NC(=O)[C@H](CC(N)=O)NC(=O)[C@H](CC(=O)O)NC(=O)[C@@H](NC(=O)[C@H](Cc1ccccc1)NC(=O)[C@@H](NC(=O)[C@H](C)NC(=O)[C@H](CC(=O)O)NC(=O)[C@H](CO)NC(=O)[C@@H](N)Cc1c[nH]cn1)C(C)C)[C@@H](C)O)[C@@H](C)O)C(C)C)C(=O)N[C@@H](CC(C)C)C(=O)N[C@@H](CC(N)=O)C(N)=O [RLF-100, aviptadil]",recovery from respiratory failure,COVID-19,rapid recovery from respiratory failure
same,replication of the SARS coronavirus,SARS coronavirus,blocked replication
"secretin (HSDGTFTSELSRLRDSARLQRLLQGLV; not fully specified (C-terminus); ends and bridges not checked; UniProt P63298 33-59, looked up)",pancreatic duct diameter,pancreas; in vivo,increases the pancreatic duct diameter
same,sphincter of Oddi,pancreas; in vivo,causes sphincter of Oddi relaxation
same,volume and bicarbonate content of pancreatic juice,pancreas; primary action,increase the volume and bicarbonate content
same,crossing of the blood-brain barrier,[1],rapidly crosses the blood-brain barrier
same,distribution in the body,[1],highly and rapidly distributed
"synthetic porcine secretin: new synthetic porcine secretin, manufactured by ChiRhoClin, Inc. (HSDGTFTSELSRLRDSARLQRLLQGLV; not fully specified (C-terminus); ends and bridges not checked; UniProt P63298 33-59, looked up)",effectiveness as a pancreatic secretagogue,pancreas; compared with secretin extracted from porcine duodenum,equally effective
